Columns and labels:
[1] = target: 5-hydroxytryptamine receptor 7 (Homo sapiens) (UniProt P34969); conditions: Compound concentration 10.0 uM
[2] = target: Cyclin-dependent kinase 5 (Homo sapiens) (UniProt Q00535); conditions: Compound concentration 1000.0 nM
[3] = target: Receptor-interacting serine/threonine-protein kinase 2 (Homo sapiens) (UniProt O43353); conditions: Compound concentration 1000.0 nM
[4] = target: Casein kinase II subunit alpha (Homo sapiens) (UniProt P68400); conditions: Compound concentration 1000.0 nM
[5] = target: Mast/stem cell growth factor receptor Kit (Homo sapiens) (UniProt P10721); conditions: Compound concentration 1000.0 nM
Chain of Mast/stem cell growth factor receptor Kit (Homo sapiens) (P10721 whole entry): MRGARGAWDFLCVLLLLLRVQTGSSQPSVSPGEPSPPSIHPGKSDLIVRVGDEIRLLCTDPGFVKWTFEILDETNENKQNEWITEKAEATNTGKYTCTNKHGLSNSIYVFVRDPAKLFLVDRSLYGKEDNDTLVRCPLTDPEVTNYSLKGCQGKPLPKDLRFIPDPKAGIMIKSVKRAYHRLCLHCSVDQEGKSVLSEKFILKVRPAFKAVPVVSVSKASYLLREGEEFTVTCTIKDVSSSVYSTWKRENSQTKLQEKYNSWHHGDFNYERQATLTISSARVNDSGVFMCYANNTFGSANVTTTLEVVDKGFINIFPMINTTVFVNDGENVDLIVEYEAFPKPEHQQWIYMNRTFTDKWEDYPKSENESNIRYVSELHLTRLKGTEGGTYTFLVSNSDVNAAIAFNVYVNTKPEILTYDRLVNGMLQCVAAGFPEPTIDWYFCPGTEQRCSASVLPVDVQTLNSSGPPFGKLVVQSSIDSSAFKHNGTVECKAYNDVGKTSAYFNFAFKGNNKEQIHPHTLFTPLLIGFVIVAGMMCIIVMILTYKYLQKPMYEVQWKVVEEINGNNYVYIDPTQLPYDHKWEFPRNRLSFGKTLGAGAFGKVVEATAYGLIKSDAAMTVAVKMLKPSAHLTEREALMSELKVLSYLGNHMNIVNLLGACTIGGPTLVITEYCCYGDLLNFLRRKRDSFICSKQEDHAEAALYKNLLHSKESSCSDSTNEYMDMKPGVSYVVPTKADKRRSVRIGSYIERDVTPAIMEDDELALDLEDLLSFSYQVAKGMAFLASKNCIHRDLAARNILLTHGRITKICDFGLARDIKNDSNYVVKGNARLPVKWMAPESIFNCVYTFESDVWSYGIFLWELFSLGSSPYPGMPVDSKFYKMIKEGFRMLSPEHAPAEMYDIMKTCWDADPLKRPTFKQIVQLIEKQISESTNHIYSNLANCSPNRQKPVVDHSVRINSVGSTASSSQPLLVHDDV

[6] = target: Ephrin type-B receptor 1 (Homo sapiens) (UniProt P54762); conditions: Compound concentration 1000.0 nM
[7] = target: Cyclin-dependent kinase-like 2 (Homo sapiens) (UniProt Q92772); conditions: Compound concentration 1000.0 nM
[8] = target: Mitogen-activated protein kinase kinase kinase 4 (Homo sapiens) (UniProt Q9Y6R4); conditions: Compound concentration 1000.0 nM
[9] = target: Cyclin-dependent kinase 17 (Homo sapiens) (UniProt Q00537); conditions: Compound concentration 1000.0 nM
[10] = target: cAMP-dependent protein kinase catalytic subunit beta (Homo sapiens) (UniProt P22694); conditions: Compound concentration 1000.0 nM
[11] = target: Serine/threonine-protein kinase 17A (Homo sapiens) (UniProt Q9UEE5); conditions: Compound concentration 1000.0 nM
Chain of Serine/threonine-protein kinase 17A (Homo sapiens) (Q9UEE5 whole entry): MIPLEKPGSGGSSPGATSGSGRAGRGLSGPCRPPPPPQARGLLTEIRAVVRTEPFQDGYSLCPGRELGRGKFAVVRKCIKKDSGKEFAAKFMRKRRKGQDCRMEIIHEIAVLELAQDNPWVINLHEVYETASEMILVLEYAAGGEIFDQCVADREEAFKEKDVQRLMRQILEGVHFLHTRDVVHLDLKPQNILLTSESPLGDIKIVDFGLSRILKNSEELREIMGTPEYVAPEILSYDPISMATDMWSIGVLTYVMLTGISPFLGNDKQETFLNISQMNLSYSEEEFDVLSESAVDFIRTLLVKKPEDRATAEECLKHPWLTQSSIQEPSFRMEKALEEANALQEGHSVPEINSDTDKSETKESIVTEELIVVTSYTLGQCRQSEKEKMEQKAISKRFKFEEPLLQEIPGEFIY

[12] = tested on: Tyrosine-protein kinase ABL1 (Homo sapiens), P00519 [F317I]; conditions: Compound concentration 1000.0 nM
[13] = target: Testis-specific serine/threonine-protein kinase 3 (Homo sapiens) (UniProt Q96PN8); conditions: Compound concentration 1000.0 nM
[14] = target: Receptor tyrosine-protein kinase erbB-2 (Homo sapiens) (UniProt P04626); conditions: Compound concentration 1000.0 nM
[15] = target: 5-hydroxytryptamine receptor 3A (Homo sapiens) (UniProt P46098); conditions: Compound concentration 10.0 uM
[16] = tested on: Tyrosine-protein kinase ABL1 (Homo sapiens), P00519 [Q252H]; conditions: Compound concentration 1000.0 nM
[17] = target: Serine/threonine-protein kinase PAK 5 (Homo sapiens) (UniProt Q9P286); conditions: Compound concentration 1000.0 nM
[18] = target: Tyrosine-protein kinase receptor TYRO3 (Homo sapiens) (UniProt Q06418); conditions: Compound concentration 1000.0 nM
[19] = target: Calcium/calmodulin-dependent protein kinase type 1D (Homo sapiens) (UniProt Q8IU85); conditions: Compound concentration 1000.0 nM
Chain of Calcium/calmodulin-dependent protein kinase type 1D (Homo sapiens) (Q8IU85 whole entry, looked up): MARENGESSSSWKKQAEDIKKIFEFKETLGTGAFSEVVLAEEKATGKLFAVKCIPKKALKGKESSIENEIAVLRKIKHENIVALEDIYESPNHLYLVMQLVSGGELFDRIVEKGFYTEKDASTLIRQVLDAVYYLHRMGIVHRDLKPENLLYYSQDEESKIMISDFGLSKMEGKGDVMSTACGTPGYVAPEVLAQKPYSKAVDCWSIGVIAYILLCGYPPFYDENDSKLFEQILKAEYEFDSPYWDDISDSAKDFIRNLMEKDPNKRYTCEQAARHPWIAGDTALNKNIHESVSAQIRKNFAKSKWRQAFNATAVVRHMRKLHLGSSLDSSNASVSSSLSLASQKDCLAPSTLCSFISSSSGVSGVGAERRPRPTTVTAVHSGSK

[20] = target: Ephrin type-A receptor 1 (Homo sapiens) (UniProt P21709); conditions: Compound concentration 1000.0 nM
[21] = target: Ribosomal protein S6 kinase alpha-5 (Homo sapiens) (UniProt O75582); conditions: Compound concentration 1000.0 nM
[22] = target: Mitogen-activated protein kinase kinase kinase kinase 2 (Homo sapiens) (UniProt Q12851); conditions: Compound concentration 1000.0 nM
Chain of Mitogen-activated protein kinase kinase kinase kinase 2 (Homo sapiens) (Q12851 whole entry): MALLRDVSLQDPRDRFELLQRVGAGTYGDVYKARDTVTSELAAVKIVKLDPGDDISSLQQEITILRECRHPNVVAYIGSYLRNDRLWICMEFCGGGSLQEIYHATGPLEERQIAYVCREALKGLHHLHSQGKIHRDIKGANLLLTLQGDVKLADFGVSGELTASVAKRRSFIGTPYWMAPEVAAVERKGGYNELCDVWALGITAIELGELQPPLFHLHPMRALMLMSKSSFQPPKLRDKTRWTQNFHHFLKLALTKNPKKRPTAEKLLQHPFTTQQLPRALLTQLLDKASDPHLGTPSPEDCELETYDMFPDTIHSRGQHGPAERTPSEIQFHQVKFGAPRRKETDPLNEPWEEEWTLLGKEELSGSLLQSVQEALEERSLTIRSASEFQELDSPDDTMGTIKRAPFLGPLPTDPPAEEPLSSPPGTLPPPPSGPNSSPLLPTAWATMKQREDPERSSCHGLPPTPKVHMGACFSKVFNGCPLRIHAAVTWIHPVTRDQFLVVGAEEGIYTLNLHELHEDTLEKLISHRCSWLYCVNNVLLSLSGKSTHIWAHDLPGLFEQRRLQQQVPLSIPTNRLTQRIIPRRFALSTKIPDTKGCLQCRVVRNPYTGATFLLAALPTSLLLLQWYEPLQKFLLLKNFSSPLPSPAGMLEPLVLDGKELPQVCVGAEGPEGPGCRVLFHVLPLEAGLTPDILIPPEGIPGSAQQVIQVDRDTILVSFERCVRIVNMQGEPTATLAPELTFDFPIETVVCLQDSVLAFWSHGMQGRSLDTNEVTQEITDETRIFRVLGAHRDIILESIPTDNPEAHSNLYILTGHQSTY

[23] = target: Kappa-type opioid receptor (Homo sapiens) (UniProt P41145); conditions: Compound concentration 10.0 uM
[24] = target: G protein-coupled receptor kinase 3 (Homo sapiens) (UniProt P35626); conditions: Compound concentration 1000.0 nM
[25] = target: Ribosomal protein S6 kinase beta-1 (Homo sapiens) (UniProt P23443); conditions: Compound concentration 1000.0 nM
[26] = target: Calcium/calmodulin-dependent protein kinase type 1B (Homo sapiens) (UniProt Q6P2M8); conditions: Compound concentration 1000.0 nM
[27] = target: Ephrin type-B receptor 4 (Homo sapiens) (UniProt P54760); conditions: Compound concentration 1000.0 nM
[28] = tested on: Tyrosine-protein kinase ABL1 (Homo sapiens), P00519 [H396P]; conditions: Compound concentration 1000.0 nM
[29] = tested on: Serine/threonine-protein kinase B-raf (Homo sapiens), P15056 [V600E]; conditions: Compound concentration 1000.0 nM
Chain of Serine/threonine-protein kinase B-raf (Homo sapiens), P15056 [V600E] (P15056 whole entry V600E): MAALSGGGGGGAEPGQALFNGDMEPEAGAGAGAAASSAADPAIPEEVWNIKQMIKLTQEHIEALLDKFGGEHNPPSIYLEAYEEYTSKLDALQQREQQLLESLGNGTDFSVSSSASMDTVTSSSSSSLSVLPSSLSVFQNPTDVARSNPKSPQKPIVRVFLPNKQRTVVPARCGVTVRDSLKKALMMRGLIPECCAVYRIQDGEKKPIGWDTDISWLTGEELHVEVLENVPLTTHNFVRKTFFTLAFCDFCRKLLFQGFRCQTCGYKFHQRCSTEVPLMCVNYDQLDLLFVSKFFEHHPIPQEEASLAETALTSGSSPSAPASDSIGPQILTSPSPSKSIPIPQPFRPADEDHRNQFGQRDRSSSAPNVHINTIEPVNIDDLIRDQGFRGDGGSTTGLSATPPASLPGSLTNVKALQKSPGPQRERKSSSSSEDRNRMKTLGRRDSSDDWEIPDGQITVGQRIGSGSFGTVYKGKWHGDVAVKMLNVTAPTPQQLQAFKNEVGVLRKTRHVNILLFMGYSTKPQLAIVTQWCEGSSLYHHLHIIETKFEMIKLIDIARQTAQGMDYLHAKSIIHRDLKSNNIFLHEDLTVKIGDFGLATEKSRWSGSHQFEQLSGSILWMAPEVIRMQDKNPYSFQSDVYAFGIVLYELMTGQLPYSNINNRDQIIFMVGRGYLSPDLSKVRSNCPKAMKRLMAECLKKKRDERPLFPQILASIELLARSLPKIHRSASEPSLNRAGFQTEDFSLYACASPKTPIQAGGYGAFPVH

[30] = target: Tyrosine-protein kinase Lck (Homo sapiens) (UniProt P06239); conditions: Compound concentration 1000.0 nM
Chain of Tyrosine-protein kinase Lck (Homo sapiens) (P06239 2-509 limits assumed): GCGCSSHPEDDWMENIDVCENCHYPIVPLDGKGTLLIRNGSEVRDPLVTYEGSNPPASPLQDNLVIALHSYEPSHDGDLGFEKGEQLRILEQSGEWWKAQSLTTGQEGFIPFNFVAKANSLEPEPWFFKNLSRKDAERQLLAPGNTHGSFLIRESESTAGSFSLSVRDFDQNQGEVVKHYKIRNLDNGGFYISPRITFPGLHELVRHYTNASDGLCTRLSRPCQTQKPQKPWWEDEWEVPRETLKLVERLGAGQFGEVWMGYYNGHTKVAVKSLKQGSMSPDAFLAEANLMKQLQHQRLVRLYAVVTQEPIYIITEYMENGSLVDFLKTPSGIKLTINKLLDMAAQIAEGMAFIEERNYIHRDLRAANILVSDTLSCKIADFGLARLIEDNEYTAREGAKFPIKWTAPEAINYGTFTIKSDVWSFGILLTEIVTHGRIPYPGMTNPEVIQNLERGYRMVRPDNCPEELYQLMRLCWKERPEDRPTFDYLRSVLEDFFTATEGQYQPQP

[31] = target: Rhodopsin kinase GRK1 (Homo sapiens) (UniProt Q15835); conditions: Compound concentration 1000.0 nM
[32] = target: Wee1-like protein kinase (Homo sapiens) (UniProt P30291); conditions: Compound concentration 1000.0 nM
[33] = target: Cyclin-dependent kinase 7 (Homo sapiens) (UniProt P50613); conditions: Compound concentration 1000.0 nM
[34] = target: Phosphatidylinositol 4,5-bisphosphate 3-kinase catalytic subunit alpha isoform (Homo sapiens) (UniProt P42336); conditions: Compound concentration 1000.0 nM
[35] = target: Mitogen-activated protein kinase kinase kinase kinase 3 (Homo sapiens) (UniProt Q8IVH8); conditions: Compound concentration 1000.0 nM
[36] = tested on: Tyrosine-protein kinase ABL1 (Homo sapiens), P00519 [F317L]; conditions: Compound concentration 1000.0 nM
[37] = target: Serine/threonine-protein kinase/endoribonuclease IRE1 (Homo sapiens) (UniProt O75460); conditions: Compound concentration 1000.0 nM
[38] = target: Aurora kinase A (Homo sapiens) (UniProt O14965); conditions: Compound concentration 1000.0 nM
[39] = target: Cyclin-dependent kinase-like 1 (Homo sapiens) (UniProt Q00532); conditions: Compound concentration 1000.0 nM
[40] = target: Phosphatidylinositol 4-kinase beta (Homo sapiens) (UniProt Q9UBF8); conditions: Compound concentration 1000.0 nM
[41] = target: Membrane-associated tyrosine- and threonine-specific cdc2-inhibitory kinase (Homo sapiens) (UniProt Q99640); conditions: Compound concentration 1000.0 nM
Chain of Membrane-associated tyrosine- and threonine-specific cdc2-inhibitory kinase (Homo sapiens) (Q99640 whole entry): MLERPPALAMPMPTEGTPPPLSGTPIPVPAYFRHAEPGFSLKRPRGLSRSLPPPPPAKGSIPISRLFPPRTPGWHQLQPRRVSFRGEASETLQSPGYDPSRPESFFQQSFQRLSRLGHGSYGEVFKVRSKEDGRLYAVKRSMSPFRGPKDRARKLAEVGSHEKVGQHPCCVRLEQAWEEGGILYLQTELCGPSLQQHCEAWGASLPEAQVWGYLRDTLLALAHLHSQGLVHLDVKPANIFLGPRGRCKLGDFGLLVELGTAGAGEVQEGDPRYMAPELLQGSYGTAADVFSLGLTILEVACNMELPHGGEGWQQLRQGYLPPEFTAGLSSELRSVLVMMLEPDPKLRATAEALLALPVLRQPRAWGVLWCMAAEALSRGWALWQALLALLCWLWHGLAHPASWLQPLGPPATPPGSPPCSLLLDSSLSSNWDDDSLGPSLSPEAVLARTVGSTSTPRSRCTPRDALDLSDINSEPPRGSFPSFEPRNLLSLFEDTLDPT

[42] = target: Tyrosine-protein kinase Yes (Homo sapiens) (UniProt P07947); conditions: Compound concentration 1000.0 nM
Chain of Tyrosine-protein kinase Yes (Homo sapiens) (P07947 2-543 limits assumed): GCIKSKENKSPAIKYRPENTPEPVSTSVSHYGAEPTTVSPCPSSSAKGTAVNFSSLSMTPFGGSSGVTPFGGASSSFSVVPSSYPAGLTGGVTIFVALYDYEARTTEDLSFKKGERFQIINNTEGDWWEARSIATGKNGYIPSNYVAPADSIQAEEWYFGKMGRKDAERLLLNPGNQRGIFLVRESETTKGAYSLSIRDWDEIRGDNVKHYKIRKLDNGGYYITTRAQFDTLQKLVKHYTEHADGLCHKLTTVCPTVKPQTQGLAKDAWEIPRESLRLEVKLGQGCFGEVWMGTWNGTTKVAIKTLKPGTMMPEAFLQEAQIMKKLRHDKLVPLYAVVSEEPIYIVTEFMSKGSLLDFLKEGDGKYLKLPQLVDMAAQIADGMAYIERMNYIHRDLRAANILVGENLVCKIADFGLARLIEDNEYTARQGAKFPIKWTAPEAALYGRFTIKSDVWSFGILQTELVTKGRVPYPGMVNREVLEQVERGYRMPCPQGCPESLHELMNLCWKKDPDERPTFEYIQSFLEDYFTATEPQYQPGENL

[43] = target: Ephrin type-A receptor 2 (Homo sapiens) (UniProt P29317); conditions: Compound concentration 1000.0 nM
[44] = target: Tyrosine-protein kinase ZAP-70 (Homo sapiens) (UniProt P43403); conditions: Compound concentration 1000.0 nM
[45] = target: Serine/threonine-protein kinase PAK 1 (Homo sapiens) (UniProt Q13153); conditions: Compound concentration 1000.0 nM

NS(=O)(=O)c1cc(NC(=O)Cc2ccccc2)ccc1Oc1cccc(Cl)c1 [BAY-1797]
inactive: inhibition [1] 35.2% | residual activity [2] 61% | residual activity [3] 94% | residual activity [4] 96% | residual activity [5] 87% | residual activity [6] 93% | residual activity [7] 99% | residual activity [8] 100% | residual activity [9] 88% | residual activity [10] 100% | residual activity [11] 94% | residual activity [12] 72% | residual activity [13] 87% | residual activity [14] 87% | inhibition [15] 19.9% | residual activity [16] 100% | residual activity [17] 63% | residual activity [18] 76% | residual activity [19] 100% | residual activity [20] 100% | residual activity [21] 71% | residual activity [22] 84% | inhibition [23] 20.3% | residual activity [24] 100% | residual activity [25] 69% | residual activity [26] 83% | residual activity [27] 98% | residual activity [28] 97% | residual activity [29] 89% | residual activity [30] 70% | residual activity [31] 83% | residual activity [32] 75% | residual activity [33] 64% | residual activity [34] 89% | residual activity [35] 100% | residual activity [36] 57% | residual activity [37] 73% | residual activity [38] 69% | residual activity [39] 98% | residual activity [40] 55% | residual activity [41] 96% | residual activity [42] 86% | residual activity [43] 91% | residual activity [44] 87% | residual activity [45] 88%

NS(=O)(=O)c1cc(NC(=O)C2(c3ccccc3Cl)CC2)ccc1Oc1cccc(Cl)c1 [BAY-207]
active: residual activity [14] 49%
inactive: inhibition [1] 17.3% | residual activity [2] 74% | residual activity [3] 93% | residual activity [4] 100% | residual activity [5] 79% | residual activity [6] 78% | residual activity [7] 94% | residual activity [8] 94% | residual activity [9] 88% | residual activity [10] 88% | residual activity [11] 85% | residual activity [12] 90% | residual activity [13] 100% | inhibition [15] 3.19% | residual activity [16] 58% | residual activity [17] 100% | residual activity [18] 100% | residual activity [19] 97% | residual activity [20] 100% | residual activity [21] 100% | residual activity [22] 100% | inhibition [23] 21.2% | residual activity [24] 100% | residual activity [25] 81% | residual activity [26] 100% | residual activity [27] 57% | residual activity [28] 81% | residual activity [29] 74% | residual activity [30] 80% | residual activity [31] 72% | residual activity [32] 91% | residual activity [33] 82% | residual activity [34] 100% | residual activity [35] 100% | residual activity [36] 88% | residual activity [37] 61% | residual activity [38] 100% | residual activity [39] 99% | residual activity [40] 75% | residual activity [41] 70% | residual activity [42] 90% | residual activity [43] 80% | residual activity [44] 100% | residual activity [45] 79%

From ChEMBL document CHEMBL4507265 (2021)
